Test results taken from US8741906B2 (priority 2011, dated 2014).
Where two headings read alike, the source gives them in different places.

Legend:
human CB2 receptors = target: T1, human CB2 receptors (Homo sapiens, UniProt P34972); assay: functional cAMP assay, human CB2; format: cell-based; conditions: CHO cells expressing human CB2, cAMP; read-out: human CB2 EC50
T1 construct: expressed in transfected cells; host or cells: CHO cells
Method in brief: (§1)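 Readout: TR-FRET cAMP detection at 730 and 645 nm with 355 nm excitation, quantified from a standard curve spanning 10 μM to 0.13 nM cAMP. Human CB1- or CB2-expressing CHO cells were exposed to compound for 30 min at 30 °C in KRB buffer containing 1 mM IBMX. EC50 derived.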

human CB1 receptors = target: T2, human CB1 receptors (Homo sapiens, UniProt P21554); assay: functional cAMP assay, human CB1; format: cell-based
T2 construct: expressed in transfected cells; host or cells: CHO cells
Method in brief: as §1

[1] = CHO cells expressing human CB1, cAMP, read-out: human CB1 EC50

T2 sequence (P21554 whole entry): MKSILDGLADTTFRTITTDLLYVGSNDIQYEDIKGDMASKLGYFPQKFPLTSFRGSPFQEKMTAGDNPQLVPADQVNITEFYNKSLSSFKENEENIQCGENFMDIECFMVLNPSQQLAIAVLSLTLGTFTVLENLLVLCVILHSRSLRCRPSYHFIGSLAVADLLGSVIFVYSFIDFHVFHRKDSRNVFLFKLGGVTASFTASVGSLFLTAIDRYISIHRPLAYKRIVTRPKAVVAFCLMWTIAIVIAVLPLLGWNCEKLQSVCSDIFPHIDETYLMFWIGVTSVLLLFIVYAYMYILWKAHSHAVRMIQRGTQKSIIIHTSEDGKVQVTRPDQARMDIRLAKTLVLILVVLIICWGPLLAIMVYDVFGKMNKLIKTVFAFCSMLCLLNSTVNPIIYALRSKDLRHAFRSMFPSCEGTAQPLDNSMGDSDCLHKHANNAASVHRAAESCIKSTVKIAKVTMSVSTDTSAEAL
T1 sequence (P34972 whole entry): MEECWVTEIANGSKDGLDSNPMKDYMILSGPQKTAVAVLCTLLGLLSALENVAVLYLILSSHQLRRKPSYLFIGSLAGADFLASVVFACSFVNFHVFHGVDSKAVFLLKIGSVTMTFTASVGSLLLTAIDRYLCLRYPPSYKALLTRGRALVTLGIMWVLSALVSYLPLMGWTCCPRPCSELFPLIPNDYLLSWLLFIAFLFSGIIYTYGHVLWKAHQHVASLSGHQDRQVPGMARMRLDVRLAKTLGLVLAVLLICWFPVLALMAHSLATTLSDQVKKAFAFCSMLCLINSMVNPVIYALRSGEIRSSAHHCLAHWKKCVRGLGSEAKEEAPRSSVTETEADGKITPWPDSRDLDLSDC

Question: `Cn1ncnc1Cn1nnc2c(N3CC[C@H](O)C3)nc(C(C)(C)C)nc21` [Example 152, (S)-1-[5-tert-Butyl-3-(2-methyl-2H-[1,2,4]triazol-3-ylmethyl)-3H-[1,2,3]triazolo[4,5-d]pyrimidin-7-yl]-pyrrolidin-3-ol] was tested. Which EC50 (human CB2 receptors) did it give?
Answer: 10.5 nM

Question: And the EC50 (human CB1 receptors; [1])?
Answer: > 10000 nM

Question: With `CC(C)(C)c1nc(N2CC[C@H](O)C2)c2nnn(Cc3ncccc3Cl)c2n1` [Example 138, (S)-1-[5-tert-Butyl-3-(3-chloro-pyridin-2-ylmethyl)-3H-[1,2,3]triazolo[4,5-d]pyrimidin-7-yl]-pyrrolidin-3-ol] as the compound, how does the EC50 (human CB2 receptors) read?
Answer: 0.4 nM

Question: And the EC50 (human CB1 receptors; [1])?
Answer: > 10000 nM

Question: Which results are given for `CC(C)(C)c1nc(OC2CCC2)c2nnn(Cc3ccccc3Cl)c2n1` [Example 205, 5-tert-Butyl-3-(2-chloro-benzyl)-7-cyclobutoxy-3H-[1,2,3]triazolo[4,5-d]pyrimidine]?
Answer: EC50 (human CB2 receptors): 12.2 nM; EC50 (human CB1 receptors; [1]): > 10000 nM

Question: For `CC(C)(C)c1nc(N2CCC(F)(F)C2)c2nnn(CC(=O)c3ccccc3Cl)c2n1` [Example 110, 2-[5-tert-Butyl-7-(3,3-difluoro-pyrrolidin-1-yl)-[1,2,3]triazolo[4,5-d]pyrimidin-3-yl]-1-(2-chloro-phenyl)-ethanone], which EC50 (human CB2 receptors) is on record?
Answer: 0.2 nM

Question: And the EC50 (human CB1 receptors; [1])?
Answer: 250 nM

Question: Which EC50 (human CB2 receptors) does the source give for `CC(C)(C)c1nc(N2CCOCC2CO)c2nnn(Cc3ccccc3Cl)c2n1` (stereo not shown) [Example 48, {4-[5-tert-Butyl-3-(2-chloro-benzyl)-3H-[1,2,3]triazolo[4,5-d]pyrimidin-7-yl]-morpholin-3-yl}-methanol] here?
Answer: 8.3 nM

Question: And the EC50 (human CB1 receptors; [1])?
Answer: > 10000 nM

Question: With `CC(C)(C)c1nc(N2CCC(F)(F)C2)c2nnn(CC3CCCCC3)c2n1` [Example 64, 5-tert-Butyl-3-cyclohexylmethyl-7-(3,3-difluoro-pyrrolidin-1-yl)-3H-[1,2,3]triazolo[4,5-d]pyrimidine] as the compound, how does the EC50 (human CB2 receptors) read?
Answer: 2.3 nM

Question: What about the EC50 (human CB1 receptors; [1]) of the same compound?
Answer: > 10000 nM

Question: With `CC(C)(C)c1nc(N2CCC[C@@H]2CO)c2nnn(Cc3ccccc3Cl)c2n1` [Example 37, {(R)-1-[5-tert-Butyl-3-(2-chloro-benzyl)-3H-[1,2,3]triazolo[4,5-d]pyrimidin-7-yl]-pyrrolidin-2-yl}-methanol] as the compound, how does the EC50 (human CB2 receptors) read?
Answer: 0.3 nM

Question: What about the EC50 (human CB1 receptors; [1]) of the same compound?
Answer: 492 nM

Question: Which EC50 (human CB2 receptors) does the source give for `Cn1nnnc1Cn1nnc2c(N3CC[C@](C)(O)C3)nc(C(C)(C)C)nc21` [Example 227-a, (S)-1-(5-tert-butyl-3-((1-methyl-1H-tetrazol-5-yl)methyl)-3H-[1,2,3]triazolo[4,5-d]pyrimidin-7-yl)-3-methylpyrrolidin-3-ol] here?
Answer: 18.7 nM

Question: And the EC50 (human CB1 receptors; [1])?
Answer: > 10000 nM

Question: `CN1CCN(c2nc(C(C)(C)C)nc3c2nnn3Cc2ccccc2Cl)CC1` [Example 4, 5-tert-Butyl-3-(2-chloro-benzyl)-7-(4-methyl-piperazin-1-yl)-3H-[1,2,3]triazolo[4,5-d]pyrimidine] was tested. Which EC50 (human CB2 receptors) did it give?
Answer: 1.4 nM

Question: What about the EC50 (human CB1 receptors; [1]) of the same compound?
Answer: 190 nM

Question: `CC(C)(C)c1nc(N2CC[C@@H](O)C2)c2nnn(Cc3ccccc3Cl)c2n1` [Example 27, (R)-1-[5-tert-Butyl-3-(2-chloro-benzyl)-3H-[1,2,3]triazolo[4,5-d]pyrimidin-7-yl]-pyrrolidin-3-ol] was tested. Which EC50 (human CB2 receptors) did it give?
Answer: 5.1 nM

Question: And the EC50 (human CB1 receptors; [1])?
Answer: > 10000 nM

Question: Which results are given for `C[C@@H](c1ccccc1Cl)n1nnc2c(N3CCC(F)(F)C3)nc(C(C)(C)C)nc21` [Example 87]?
Answer: EC50 (human CB2 receptors): 1 nM; EC50 (human CB1 receptors; [1]): 270 nM

Question: Which EC50 (human CB2 receptors) does the source give for `Cc1c(Cn2nnc3c(N4CC[C@H](O)C4)nc(C(C)(C)C)nc32)ccc[n+]1[O-]` [Example 162, (S)-1-[5-tert-Butyl-3-(2-methyl-1-oxy-pyridin-3-ylmethyl)-3H-[1,2,3]triazolo[4,5-d]pyrimidin-7-yl]-pyrrolidin-3-ol] here?
Answer: 27.7 nM

Question: What about the EC50 (human CB1 receptors; [1]) of the same compound?
Answer: > 10000 nM

Question: What does the source list for `CC(C)(C)c1nc(OC2CCCC2)c2nnn(Cc3ccccc3Cl)c2n1` [Example 212, 5-tert-Butyl-3-(2-chloro-benzyl)-7-cyclopentyloxy-3H-[1,2,3]triazolo[4,5-d]pyrimidine]?
Answer: EC50 (human CB2 receptors): 22 nM; EC50 (human CB1 receptors; [1]): > 10000 nM

Question: `CC(C)(C)c1nc(N2CCOCC2)c2nnn(Cc3ccc(F)cc3Cl)c2n1` [Example 59, 5-tert-Butyl-3-(2-chloro-4-fluoro-benzyl)-7-morpholin-4-yl-3H-[1,2,3]triazolo[4,5-d]pyrimidine] was tested. Which EC50 (human CB2 receptors) did it give?
Answer: 2.3 nM

Question: What about the EC50 (human CB1 receptors; [1]) of the same compound?
Answer: > 10000 nM

Question: `CC(C)(C)c1nc(N2CCC23COC3)c2nnn(Cc3ccccc3Cl)c2n1` [Example 35, 5-tert-Butyl-3-(2-chloro-benzyl)-7-(6-oxa-1-aza-spiro[3.3]hept-1-yl)-3H-[1,2,3]triazolo[4,5-d]pyrimidine] was tested. Which EC50 (human CB2 receptors) did it give?
Answer: 3.6 nM

Question: What about the EC50 (human CB1 receptors; [1]) of the same compound?
Answer: > 10000 nM

Question: With `CC(C)(C)c1nc(N2CC[C@](C)(O)C2)c2nnn(Cc3nnnn3C3CC3)c2n1` [Example 230-a, (S)-1-(5-tert-butyl-3-((1-cyclopropyl-1H-tetrazol-5-yl)methyl)-3H-[1,2,3]triazolo[4,5-d]pyrimidin-7-yl)-3-methylpyrrolidin-3-ol] as the compound, how does the EC50 (human CB2 receptors) read?
Answer: 2.7 nM

Question: What about the EC50 (human CB1 receptors; [1]) of the same compound?
Answer: > 10000 nM

Question: How did the EC50 (human CB2 receptors) turn out when `CC(C)(C)c1nc(N2CCC(F)(F)C2)c2nnn(Cc3c(Cl)cccc3Cl)c2n1` [Example 70, 5-tert-Butyl-3-(2,6-dichloro-benzyl)-7-(3,3-difluoro-pyrrolidin-1-yl)-3H-[1,2,3]triazolo[4,5-d]pyrimidine] was run?
Answer: 0.1 nM

Question: What about the EC50 (human CB1 receptors; [1]) of the same compound?
Answer: 50.8 nM

Question: Which EC50 (human CB2 receptors) does the source give for `Cn1c(Cn2nnc3c(N4CCC(F)(F)C4)nc(C(C)(C)C)nc32)nnc1S(C)(=O)=O` [Example 133, 5-tert-Butyl-7-(3,3-difluoro-pyrrolidin-1-yl)-3-(5-methanesulfonyl-4-methyl-4H-[1,2,4]triazol-3-ylmethyl)-3H-[1,2,3]triazolo[4,5-d]pyrimidine] here?
Answer: 4.4 nM

Question: What about the EC50 (human CB1 receptors; [1]) of the same compound?
Answer: > 10000 nM

Question: For `CC(C)(C)c1nc(N2CC[C@@H](F)C2)c2nnn(Cc3ccccc3Cl)c2n1` [Example 42, 5-tert-Butyl-3-(2-chloro-benzyl)-7-((R)-3-fluoro-pyrrolidin-1-yl)-3H-[1,2,3]triazolo[4,5-d]pyrimidine], which EC50 (human CB2 receptors) is on record?
Answer: 0.3 nM

Question: And the EC50 (human CB1 receptors; [1])?
Answer: 991 nM

Question: What does the source list for `CC(C)(C)c1nc(N2CCC(F)(F)C2)c2nnn(CCc3ccccc3)c2n1` [Example 84, 5-tert-Butyl-7-(3,3-difluoro-pyrrolidin-1-yl)-3-phenethyl-3H-[1,2,3]triazolo[4,5-d]pyrimidine]?
Answer: EC50 (human CB2 receptors): 1.2 nM; EC50 (human CB1 receptors; [1]): 451 nM

Question: Which results are given for `CC(C)(C)c1nc(N2CCC(F)(F)C2)c2nnn(Cc3cc(F)c(F)cc3Cl)c2n1` [Example 77, 5-tert-Butyl-3-(2-chloro-4,5-difluoro-benzyl)-7-(3,3-difluoro-pyrrolidin-1-yl)-3H-[1,2,3]triazolo[4,5-d]pyrimidine]?
Answer: EC50 (human CB2 receptors): 0.8 nM; EC50 (human CB1 receptors; [1]): > 10000 nM

Question: What does the source list for `Cn1ncnc1Cn1nnc2c(N3CC[C@H](O)[C@@H]3CO)nc(C(C)(C)C)nc21` [Example 169, (2S,3S)-1-[5-tert-Butyl-3-(2-methyl-2H-[1,2,4]triazol-3-ylmethyl)-3H-[1,2,3]triazolo[4,5-d]pyrimidin-7-yl]-2-hydroxymethyl-pyrrolidin-3-ol]?
Answer: EC50 (human CB2 receptors): 199 nM; EC50 (human CB1 receptors): > 10000 nM

Question: How did the EC50 (human CB2 receptors) turn out when `CC(C)(C)c1nc(N2CC[C@@](C)(O)C2)c2nnn(Cc3ccccc3Cl)c2n1` [Example 221-b, (R)-1-(5-tert-butyl-3-(2-chlorobenzyl)-3H-[1,2,3]triazolo[4,5-d]pyrimidin-7-yl)-3-methylpyrrolidin-3-ol] was run?
Answer: 7 nM

Question: What about the EC50 (human CB1 receptors; [1]) of the same compound?
Answer: 853 nM

Question: Which results are given for `CC(C)(C)c1nc(N2CC[C@@](C)(O)C2)c2nnn(Cc3nnnn3C3CC3)c2n1` [Example 230-b, (R)-1-(5-tert-butyl-3-((1-cyclopropyl-1H-tetrazol-5-yl)methyl)-3H-[1,2,3]triazolo[4,5-d]pyrimidin-7-yl)-3-methylpyrrolidin-3-ol]?
Answer: EC50 (human CB2 receptors): 13.6 nM; EC50 (human CB1 receptors; [1]): > 10000 nM

Question: `CC(C)(C)c1nc(N2CCC2)c2nnn(Cc3ccccc3Cl)c2n1` [Example 11, 7-Azetidin-1-yl-5-tert-butyl-3-(2-chloro-benzyl)-3H-[1,2,3]triazolo[4,5-d]pyrimidine] was tested. Which EC50 (human CB2 receptors) did it give?
Answer: 3.2 nM

Question: And the EC50 (human CB1 receptors; [1])?
Answer: 1090 nM

Question: For `C[C@@H]1CC[C@@H](C)N1c1nc(C(C)(C)C)nc2c1nnn2Cc1ccccc1Cl` [Example 25, 5-tert-Butyl-3-(2-chloro-benzyl)-7-((2R,5R)-2,5-dimethyl-pyrrolidin-1-yl)-3H-[1,2,3]triazolo[4,5-d]pyrimidine], which EC50 (human CB2 receptors) is on record?
Answer: 31 nM

Question: What about the EC50 (human CB1 receptors; [1]) of the same compound?
Answer: 919 nM

Question: Which results are given for `CC(C)(C)c1nc(N2CCC(F)(F)C2)c2nnn(Cc3ccccc3S(C)(=O)=O)c2n1` [Example 112, 5-tert-Butyl-7-(3,3-difluoro-pyrrolidin-1-yl)-3-(2-methanesulfonyl-benzyl)-3H-[1,2,3]triazolo[4,5-d]pyrimidine]?
Answer: EC50 (human CB2 receptors): 0.1 nM; EC50 (human CB1 receptors; [1]): 4.7 nM

Question: What does the source list for `COc1ccc(Cn2nnc3c(N4CCOCC4)nc(C(C)(C)C)nc32)cc1` [Example 57, 5-tert-Butyl-3-(4-methoxy-benzyl)-7-morpholin-4-yl-3H-[1,2,3]triazolo[4,5-d]pyrimidine]?
Answer: EC50 (human CB2 receptors): 12.3 nM; EC50 (human CB1 receptors; [1]): > 10000 nM

Question: For `CC(C)(C)c1nc(N2CC[C@H](O)C2)c2nnn(Cc3ccccc3C(F)(F)F)c2n1` [Example 142, (S)-1-[5-tert-Butyl-3-(2-trifluoromethyl-benzyl)-3H-[1,2,3]triazolo[4,5-d]pyrimidin-7-yl]-pyrrolidin-3-ol], which EC50 (human CB2 receptors) is on record?
Answer: 0.2 nM

Question: And the EC50 (human CB1 receptors; [1])?
Answer: > 10000 nM

Question: For `CC(C)(C)c1nc(N2CCC[C@@H]2C#N)c2nnn(Cc3ccccc3Cl)c2n1` [Example 49, (R)-1-[5-tert-Butyl-3-(2-chloro-benzyl)-3H-[1,2,3]triazolo[4,5-d]pyrimidin-7-yl]-pyrrolidine-2-carbonitrile], which EC50 (human CB2 receptors) is on record?
Answer: 1.1 nM

Question: And the EC50 (human CB1 receptors; [1])?
Answer: 155 nM

Question: Which EC50 (human CB2 receptors) does the source give for `CC(C)(C)c1nc(N2CCC(F)(F)C2)c2nnn(C3CCS(=O)(=O)C3)c2n1` (stereo not shown) [Example 126, 5-tert-Butyl-7-(3,3-difluoro-pyrrolidin-1-yl)-3-(1,1-dioxo-tetrahydro-1λ^6-thiophen-3-yl)-3H-[1,2,3]triazolo[4,5-d]pyrimidine] here?
Answer: 0.3 nM

Question: And the EC50 (human CB1 receptors; [1])?
Answer: 496 nM

Question: `Cn1nncc1Cn1nnc2c(N3CC[C@H](O)[C@@H]3CO)nc(C(C)(C)C)nc21` [Example 171, (2S,3S)-1-[5-tert-Butyl-3-(3-methyl-3H-[1,2,3]triazol-4-ylmethyl)-3H-[1,2,3]triazolo[4,5-d]pyrimidin-7-yl]-2-hydroxymethyl-pyrrolidin-3-ol] was tested. Which EC50 (human CB2 receptors) did it give?
Answer: 54.2 nM

Question: And the EC50 (human CB1 receptors; [1])?
Answer: > 10000 nM
